Source: patent US11673878B2, “Benzazepine derivatives” (OTSUKA PHARMACEUTICAL CO., LTD., priority 2017, dated 2023)

Legend:
[1] = Pharmacokinetics study in mice, single oral dose; format: in vivo; settings: mouse; male ICR mice, single-dose oral administration of 30 mg/kg, plasma
Method: A pharmacokinetics (PK) study was performed using male ICR mice to compare the oral absorption properties of the present compounds with tolvaptan. A test compound was suspended in a 1% hydroxypropyl methylcellulose (HPMC) solution to be adjusted to the concentration of 4.5 mg/mL. The present compounds were used as the forms obtained in the above examples (including the amorphous form) for a test compound, or used after spray drying, if needed.
Male ICR mice (7-week old) were freely fed food and water and weighed on an electronic scale. Then, a test compound was orally administered at the dose of 30 mg/kg […]. After the oral administration, blood was collected from the abdominal vena cava under isoflurane anesthesia using a 1 mL heparinized syringe with a 26 G injection needle. Blood was separated by centrifugation at 4° C., 3000 rpm for 10 minutes to give plasma in a supernatant. The plasma concentration of a test compound was measured by LC-MS/MS.
The following PK parameters were calculated using the mean plasma concentrations of unchanged substances obtained from two animals at each time point.
Cmax: Maximum plasma concentration (μg/mL)
tmax: Time-to-maximum plasma concentration (h)
AUCinf: Area under the plasma concentration-time curve from administration to infinite time (μg h/mL)

[2] = Metabolic stability test in human liver microsomes; format: in vitro ADME; settings: pH 7.4; human liver microsomes 1 mg/mL, test compound 1 μmol/L, NADPH and NADH, 37° C., n = 4; read-out: CLint (μL/min/mg) mean ± SD
Method: Reaction System and Incubation
According to methods of Obach and Jones, et al. (methods described in R. S. Obach, Drug Metab. Dispos. 1999 (27): 1350-1359 and H. Jones and J. B. Houston, Drug Metab. Dispos. 2004 (32): 973-982), the reaction system shown below was prepared and metabolic stabilities of test compounds (the present compounds and, tolvaptan) were evaluated using the reaction system shown below. Human liver microsomes purchased from Corning Inc. were used. Test compounds were dissolved in DMSO at the concentration of 10 mmol/L and then diluted with acetonitrile to prepare a 100 μmol/L solution for use in the test. The 100 μmol/L solutions were used in the experiment.
Human liver microsome 1 mg/mL
Co-factor (NADPH and NADH) 1 mmol/L each
Magnesium chloride 5 mmol/L
100 mmol/L Potassium phosphate buffer (pH 7.4)
The reaction mixture without co-factors was pre-incubated at 37° C. for 5 minutes, and then the reaction was initiated by the addition of the co-factors. The mixture was incubated for 0, 5, 10, 20, 30, and 60 minutes after the addition of the co-factors. An aliquot of the reaction mixture was removed and added to a methanol solution containing an internal standard (IS) and mixed to terminate the reaction at each predetermined time.
After the reaction was terminated, the mixture was separated by centrifugation and the supernatant was injected into a liquid chromatograph-tandem mass spectrometer (LC-MS/MS) to measure unchanged substances remained in the reaction system. The mass spectrometer was operated in a positive ion mode of the electrospray ionization (ESI) method. Unchanged substances and the IS were detected by multiple reaction monitoring (MRM) transitions using selected precursor and product ions set.
The remaining ratios of test compounds were calculated by the following equation. Remaining ratio=(Peak area ratio of a test compound to IS at t minutes after incubation)÷(Peak area ratio of a test compound to IS at 0 minute)
The slope of X-axis (the incubation time) and Y-axis (logarithm of the remaining ratio) was calculated by a non-linear least square method. Hepatic intrinsic clearance (CLint) was calculated by the following equation. CLint(μL/min/mg)=−(Slope(min^−1))÷1(mg/mL)×1000

[3] = target: T1, rat vasopressin V2 receptor (Rattus norvegicus, UniProt Q00788); assay: Binding inhibition test for rat V2 receptor (3H-AVP, rV2R-CHO cells); settings: inhibition of 3H-AVP binding, 4° C., 2 hours, read-out: Binding affinity rV2 (IC50)
T1 construct: expressed in transfected cells; host or cells: CHO cells (rV2R-CHO)
Method: (§1) Various compounds were studied in binding affinities for vasopressin receptors with an indicator of binding inhibition of rat vasopressin V1a receptor and vasopressin V2 receptor of ^3H-arginine vasopressin (AVP) (NET800, available from PerkinElmer Inc., Life Sciences).
(2) Binding Inhibition Test for Rat V2 Receptor (rV2R)
Rat V2 receptor-expressed CHO cells (rV2R—CHO) were incubated on 10% FBS-containing DMEM/F12 in a 24-well plate, and each cell was washed with D-PBS twice. A reaction solution (D-PBS containing 0.1% BSA and 0.05% sodium azide) comprising a compound in various concentrations (0.3 nM to 100 nM) was added to each well, and a certain amount of ^3H-AVP was added thereto (100-fold dilution). Reactions were carried out at 4° C. for 2 hours on the plate. Then, each well was washed with D-PBS twice and 0.1N NaOH was added to each well. The cells were collected, and the radioactivity of ^3H-AVP was measured with a scintillation counter.
(§2) ^3H-AVP binding rate in the presence of a compound was calculated by the following equation. Binding rate (%)=(B−NSB)/(TB−NSB)×100 (B: Binding amount of ^3H-AVP in the presence of each compound, NSB: Binding amount of ^3H-AVP in the presence of 1 μM of unlabeled AVP, TB: Binding amount of ^3H-AVP in the absence of 1 μM of unlabeled AVP)

[4] = target: T2, rat vasopressin V1a receptor (Rattus norvegicus, UniProt P30560); assay: Binding inhibition test for rat V1a receptor (3H-AVP, rat hepatic membrane); settings: inhibition of 3H-AVP binding, rat hepatic membrane V1a receptor fractions, 4° C., 2 hours; read-out: Binding affinity rV1a (IC50)
T2 construct: V1a receptor fractions derived from rat hepatic membrane; from tissue; host or cells: rat liver (hepatic membrane)
Method: as §1
(1) Binding Inhibition Test for Rat V1a Receptor (rV1aR)
50 μg of V1a receptor fractions derived from rat hepatic membrane were diluted with a reaction solution (100 mM Tris-HCl (pH 8.0), 0.1% BSA, 5 mM MgCl2, 1 mM EDTA) and added to each well of a 96-well plate. A compound was added to each well in various concentrations (0.3 nM to 100 nM), and ^3H-AVP was added thereto in the range of 1 nM to 3 nM. Reactions were carried out at 4° C. for 2 hours on the plate. Via receptor fractions were collected with a 96-well glass filter (Unifilter GF/B) after the reactions and washed with a washing solution (10 mM Tris-HCl (pH 8.0), 5 mM MgCl2, 1 mM EDTA) three times, and then the radioactivity of ^3H-AVP was measured with a scintillation counter.
as §2

T2 sequence (P30560 whole entry): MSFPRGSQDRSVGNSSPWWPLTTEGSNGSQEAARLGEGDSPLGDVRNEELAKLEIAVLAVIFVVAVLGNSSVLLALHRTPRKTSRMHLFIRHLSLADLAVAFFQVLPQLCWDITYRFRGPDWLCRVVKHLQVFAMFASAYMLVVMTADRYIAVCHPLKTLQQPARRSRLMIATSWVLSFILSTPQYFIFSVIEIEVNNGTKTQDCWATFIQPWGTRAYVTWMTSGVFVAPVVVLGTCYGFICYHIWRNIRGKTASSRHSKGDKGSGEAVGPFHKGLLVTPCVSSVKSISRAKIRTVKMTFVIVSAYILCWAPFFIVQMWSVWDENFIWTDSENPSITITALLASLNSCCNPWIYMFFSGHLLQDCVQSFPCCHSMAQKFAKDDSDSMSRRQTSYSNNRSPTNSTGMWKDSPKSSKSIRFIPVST
T1 sequence (Q00788 whole entry): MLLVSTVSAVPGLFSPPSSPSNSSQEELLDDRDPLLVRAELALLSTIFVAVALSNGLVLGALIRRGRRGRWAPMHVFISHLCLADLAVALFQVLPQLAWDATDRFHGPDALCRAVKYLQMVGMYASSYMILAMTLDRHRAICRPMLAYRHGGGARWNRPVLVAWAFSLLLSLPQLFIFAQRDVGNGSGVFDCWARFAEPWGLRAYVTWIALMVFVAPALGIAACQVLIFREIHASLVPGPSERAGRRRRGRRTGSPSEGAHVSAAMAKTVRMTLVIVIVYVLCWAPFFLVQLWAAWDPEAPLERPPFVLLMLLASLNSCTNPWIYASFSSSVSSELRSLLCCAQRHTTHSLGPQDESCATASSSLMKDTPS

Work on `O=C(Nc1ccc(C(=O)N2CCC(F)(F)[C@](O)(CO)c3cc(Cl)ccc32)cc1)c1cc(F)ccc1-c1ccccc1` [Example 153, N-{4-[(5R)-7-chloro-4,4-difluoro-5-hydroxy-5-(hydroxymethyl)-2,3,4,5-tetrahydro-1H-1-benzazepine-1-carbonyl]phenyl}-4-fluoro-[1,1′-biphenyl]-2-carboxamide] yielded an AUC(0-inf) [1] of 34000 ng·h/mL, a Cmax [1] of 5480 ng/mL and a Tmax [1] of 1 h. It also gave a microsomal CLint at 1 μmol/L [2] of 1.91 ± 2.22 µL/min/mg, an IC50 [3] of 4.5 nM and an IC50 [4] of 3.6 nM.
Work on `O=C(Nc1ccc(C(=O)N2CCC(F)(F)[C@](O)(CO)c3cc(Cl)ccc32)cc1F)c1cc(F)ccc1C(F)(F)F` [Example 132] yielded an AUC(0-inf) [1] of 56500 ng·h/mL, a Cmax [1] of 3590 ng/mL and a Tmax [1] of 4 h. The microsomal CLint at 1 μmol/L [2] was < 4 µL/min/mg, the IC50 [3] was 2.3 nM and the IC50 [4] was 5.2 nM.
In the case of `O=C(Nc1ccc(C(=O)N2CCC(F)(F)[C@](O)(CO)c3cc(Cl)ccc32)cc1)c1cc(F)ccc1-c1ccccc1F` [Example 169, N-{4-[(5R)-7-chloro-4,4-difluoro-5-hydroxy-5-(hydroxymethyl)-2,3,4,5-tetrahydro-1H-1-benzazepine-1-carbonyl]phenyl}-2′,4-difluoro-[1,1′-biphenyl]-2-carboxamide], the AUC(0-inf) [1] is reported as 32200 ng·h/mL, the Cmax [1] is reported as 5650 ng/mL and the Tmax [1] is reported as 1 h. The microsomal CLint at 1 μmol/L [2] was 5.09 ± 0.32 µL/min/mg, the IC50 [3] was 3.3 nM and the IC50 [4] was 1.6 nM.
For `O=C(Nc1ccc(C(=O)N2CCC(F)(F)[C@](O)(CO)c3cc(Cl)ccc32)cc1F)c1cc(F)ccc1C(F)F` [Example 157, N-{4-[(5R)-7-chloro-4,4-difluoro-5-hydroxy-5-(hydroxymethyl)-2,3,4,5-tetrahydro-1H-1-benzazepine-1-carbonyl]-2-fluorophenyl}-2-(difluoromethyl)-5-fluorobenzamide], the AUC(0-inf) [1] was 80500 ng·h/mL, the Cmax [1] was 6210 ng/mL and the Tmax [1] was 1 h. The microsomal CLint at 1 μmol/L [2] was < 4 µL/min/mg, the IC50 [3] was 3.2 nM and the IC50 [4] was 12 nM.
`O=C(Nc1ccc(C(=O)N2CCC(F)(F)[C@](O)(CO)c3cc(Cl)ccc32)cn1)c1cc(F)c(Cl)cc1Cl` [Example 52, 2,4-dichloro-N-{5-[(5R)-7-chloro-4,4-difluoro-5-hydroxy-5-(hydroxymethyl)-2,3,4,5-tetrahydro-1H-1-benzazepine-1-carbonyl]pyridin-2-yl}-5-fluorobenzamide] showed an AUC(0-inf) [1] of 62700 ng·h/mL, a Cmax [1] of 5570 ng/mL and a Tmax [1] of 1 h. For the same compound, the microsomal CLint at 1 μmol/L [2] was < 4 µL/min/mg, the IC50 [3] was 3 nM and the IC50 [4] was 8.8 nM.
For `Cc1ccccc1C(=O)Nc1ccc(C(=O)N2CCCC(O)c3cc(Cl)ccc32)c(C)c1` (stereo not shown) [Tolvaptan, reference compound], the AUC(0-inf) [1] was 1780 ng·h/mL, the Cmax [1] was 682 ng/mL and the Tmax [1] was 1 h. The microsomal CLint at 1 μmol/L [2] was 105 ± 11 µL/min/mg.
`O=C(Nc1ccc(C(=O)N2CCC(F)(F)C(O)(CO)c3cc(Cl)ccc32)cn1)c1cc(F)ccc1Cl` (stereo not shown) [Example 3, 2-chloro-N-{5-[7-chloro-4,4-difluoro-5-hydroxy-5-(hydroxymethyl)-2,3,4,5-tetrahydro-1H-1-benzazepine-1-carbonyl]pyridin-2-yl}-5-fluorobenzamide] showed an AUC(0-inf) [1] of 38900 ng·h/mL, a Cmax [1] of 4820 ng/mL and a Tmax [1] of 1 h. The microsomal CLint at 1 μmol/L [2] was < 4 µL/min/mg, the IC50 [3] was 2.1 nM and the IC50 [4] was 9.5 nM.
Work on `O=C(Nc1ccc(C(=O)N2CCC(F)(F)[C@](O)(CO)c3cc(Cl)ccc32)cn1)c1cc(F)ccc1Cl` [Example 15, 2-chloro-N-{5-[(5R)-7-chloro-4,4-difluoro-5-hydroxy-5-(hydroxymethyl)-2,3,4,5-tetrahydro-1H-1-benzazepine-1-carbonyl]pyridin-2-yl}-5-fluorobenzamide] yielded an AUC(0-inf) [1] of 63100 ng·h/mL, a Cmax [1] of 6180 ng/mL and a Tmax [1] of 1 h. The microsomal CLint at 1 μmol/L [2] was < 4 µL/min/mg, the IC50 [3] was 1 nM and the IC50 [4] was 2.9 nM.
Compound `O=C(Nc1ccc(C(=O)N2CCC(F)(F)[C@](O)(CO)c3cc(Cl)ccc32)cc1F)c1cc(F)ccc1-c1ccccc1F` [Example 168, N-{4-[(5R)-7-chloro-4,4-difluoro-5-hydroxy-5-(hydroxymethyl)-2,3,4,5-tetrahydro-1H-1-benzazepine-1-carbonyl]-2-fluorophenyl}-2′,4-difluoro-[1,1′-biphenyl]-2-carboxamide] has an AUC(0-inf) [1] of 40900 ng·h/mL, a Cmax [1] of 7110 ng/mL and a Tmax [1] of 1 h. For the same compound, the microsomal CLint at 1 μmol/L [2] was 7.48 ± 1.5 µL/min/mg, the IC50 [3] was 4.7 nM and the IC50 [4] was 2.2 nM.
`O=C(Nc1ccc(C(=O)N2CCC(F)(F)[C@](O)(CO)c3cc(Cl)ccc32)cc1F)c1cc(F)ccc1Cl` [Example 24, 2-chloro-N-{4-[(5R)-7-chloro-4,4-difluoro-5-hydroxy-5-(hydroxymethyl)-2,3,4,5-tetrahydro-1H-1-benzazepine-1-carbonyl]-2-fluorophenyl}-5-fluorobenzamide] gave an AUC(0-inf) [1] of 44000 ng·h/mL, a Cmax [1] of 4080 ng/mL and a Tmax [1] of 4 h. The microsomal CLint at 1 μmol/L [2] was < 4 µL/min/mg, the IC50 [3] was 1.5 nM and the IC50 [4] was 2.7 nM.
For `O=C(Nc1ccc(C(=O)N2CCC(F)(F)[C@](O)(CO)c3cc(Cl)ccc32)cn1)c1cc(F)ccc1-c1ccccc1` [Example 96, N-{5-[(5R)-7-chloro-4,4-difluoro-5-hydroxy-5-(hydroxymethyl)-2,3,4,5-tetrahydro-1H-1-benzazepine-1-carbonyl]pyridin-2-yl}-4-fluoro-[1,1′-biphenyl]-2-carboxamide], the AUC(0-inf) [1] was 43000 ng·h/mL, the Cmax [1] was 5550 ng/mL and the Tmax [1] was 4 h. For the same compound, the microsomal CLint at 1 μmol/L [2] was 0.953 ± 1.91 µL/min/mg, the IC50 [3] was 5 nM and the IC50 [4] was 2 nM.
`O=C(Nc1ccc(C(=O)N2CCC(F)(F)[C@](O)(CO)c3cc(Cl)ccc32)cn1)c1cccnc1C(F)(F)F` [Example 66, N-{5-[(5R)-7-chloro-4,4-difluoro-5-hydroxy-5-(hydroxymethyl)-2,3,4,5-tetrahydro-1H-1-benzazepine-1-carbonyl]pyridin-2-yl}-2-(trifluoromethyl)pyridine-3-carboxamide] gave an AUC(0-inf) [1] of 38300 ng·h/mL, a Cmax [1] of 4550 ng/mL and a Tmax [1] of 1 h. For the same compound, the microsomal CLint at 1 μmol/L [2] was < 4 µL/min/mg, the IC50 [3] was 3.5 nM and the IC50 [4] was 21.1 nM.
